The series in a line: particle size (dv10) of darunavir after drying. The note with it: 10% (volume %) of particles smaller than value. The series is classed as physicochemical. As to the method:
The active ingredient darunavir ethanolate used in the marketed 300 mg tablet formulation has been manufactured by a process which includes a drying process in which the particulate darunavir is dried on trays, i.e. a static process. However, in order to provide a higher manufacturing throughput and improved safety for the operators, it is desirable to replace the static drying with a tumble drying operation involving drying in a revolving container. Such a change in the drying operation however has a significant effect on the physical characteristics of the particles of the darunavir. In this case the tumble drying of the particles results in a reduction in the dv10 value (dv10 means that 10% (volume %) of the particles has a diameter smaller than the specified value) from approximately 80 microns to approximately 35 microns. […] It will be appreciated that good blend flow and good tablet properties such as weight uniformity and appropriate visual appearance, without any defects, are essential in a large-scale industrial manufacturing process to maximise throughput and ensure consistent and efficient processing of the material.

For `CC(C)CN(C[C@@H](O)[C@H](Cc1ccccc1)NC(=O)O[C@H]1CO[C@H]2OCC[C@H]21)S(=O)(=O)c1ccc(N)cc1` [darunavir, [(1S,2R)-3-[[(4-aminophenyl)sulfonyl](2-methylpropyl)amino]-2-hydroxy-1-(phenylmethyl)propyl]-carbamic acid (3R,3aS,6aR)hexahydrofuro[2,3-b]furan-3-yl ester], the dv10 value result (after tumble drying) is “approximately 35 microns” and the dv10 value entry (static drying on trays) was “approximately 80 microns”.

(Values after patent US20100189783A1, “RELATING TO ANTI-HIV TABLET FORMULATIONS” (priority 2007, published 2010).)
